Several values for one entry are separate records, joined by “and”; a condition that tells them apart may be missing. Identical values can stand only once. Toxic doses and inconclusive results are not listed.
Tested on: CD2F1 mice, L1210 leukemia ip, survival T/C
Assay: NCI In Vivo Anticancer Drug Screen. Data for tumor model L1210 Leukemia (intraperitoneal) in CD2F1 (CDF1) mice
Details: higher = longer survival
Summary of the method: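 Tumor-bearing mice (transplanted tumor) were split into treated and vehicle control groups, and the measured endpoint of each treated group was divided by that of its vehicle controls.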

[1] = endpoint: mean survival time, dose: 100.0 mg/kg/injection, schedule: Q01DX001 (ip), vehicle: saline
[2] = endpoint: mean survival time, dose: 200.0 mg/kg/injection, schedule: Q01DX001 (ip), vehicle: saline
[3] = endpoint: mean survival time, dose: 400.0 mg/kg/injection, schedule: Q01DX001 (ip), vehicle: saline
[4] = endpoint: mean survival time, dose: 100.0 mg/kg/injection, schedule: Q04DX002 (ip), vehicle: saline with Tween-80
[5] = endpoint: mean survival time, dose: 200.0 mg/kg/injection, schedule: Q04DX002 (ip), vehicle: saline with Tween-80

## O=C(CCOP(=O)(N1CC1)N1CC1)OCc1ccccc1
endpoint: mean survival time, dose: 2.0 mg/kg/injection, schedule: Q01DX009 (ip), vehicle: water
  T/C: 101 % of control
endpoint: mean survival time, dose: 3.9 mg/kg/injection, schedule: Q01DX001 (ip), vehicle: Klucel (hydroxypropylcellulose) (HPC)
  T/C: 89 % of control
endpoint: mean survival time, dose: 4.0 mg/kg/injection, schedule: Q01DX009 (ip), vehicle: water
  T/C: 98 % of control
endpoint: mean survival time, dose: 7.8 mg/kg/injection, schedule: Q01DX001 (ip), vehicle: Klucel (hydroxypropylcellulose) (HPC)
  T/C: 102 % of control
endpoint: mean survival time, dose: 8.0 mg/kg/injection, schedule: Q01DX009 (ip), vehicle: water
  T/C: 104 % of control
endpoint: mean survival time, dose: 15.6 mg/kg/injection, schedule: Q01DX001 (ip), vehicle: Klucel (hydroxypropylcellulose) (HPC)
  T/C: 98 % of control
endpoint: mean survival time, dose: 16.0 mg/kg/injection, schedule: Q01DX009 (ip), vehicle: water
  T/C: 106 % of control
endpoint: mean survival time, dose: 31.2 mg/kg/injection, schedule: Q01DX001 (ip), vehicle: Klucel (hydroxypropylcellulose) (HPC)
  T/C: 88 % of control
endpoint: mean survival time, dose: 32.0 mg/kg/injection, schedule: Q01DX009 (ip), vehicle: water
  T/C: 118 % of control

## O=C(O)C(O)C(O)C(OC1OC(CO)C(O)C(O)C1O)C(O)CO.[Br][Pt].[NH-]C1CCCCC1[NH-] (configuration not stated)
endpoint: median survival time, dose: 6.25 mg/kg/injection, schedule: Q04DX003 (ip), vehicle: saline
  T/C: 158 % of control
endpoint: median survival time, dose: 12.5 mg/kg/injection, schedule: Q04DX003 (ip), vehicle: saline
  T/C: 175 % of control
endpoint: median survival time, dose: 25.0 mg/kg/injection, schedule: Q04DX003 (ip), vehicle: saline
  T/C: 163 % of control and 212 % of control
endpoint: median survival time, dose: 50.0 mg/kg/injection, schedule: Q04DX003 (ip), vehicle: saline
  T/C: 178 % of control and 200 % of control

## CCCC1(CC(C)CC)C(=O)NC(=O)NC1=O (configuration not stated) (tested in a mixture with another compound)
endpoint: mean survival time, dose: 75.0 mg/kg/injection, schedule: Q01DX001 (ip), vehicle: saline
  T/C: 93 % of control
endpoint: mean survival time, dose: 150.0 mg/kg/injection, schedule: Q01DX001 (ip), vehicle: saline
  T/C: 100 % of control
endpoint: mean survival time, dose: 300.0 mg/kg/injection, schedule: Q01DX001 (ip), vehicle: saline
  T/C: 104 % of control

## S=[As](c1ccccc1)(c1ccccc1)c1ccccc1
[1]
  T/C: 103 % of control
[2]
  T/C: 100 % of control
[3]
  T/C: 91 % of control

## COC1OC(C(O)CO)C(O)C(O)C1O (configuration not stated)
[1]
  T/C: 105 % of control
endpoint: mean survival time, dose: 100.0 mg/kg/injection, schedule: Q04DX003 (ip), vehicle: saline with Tween-80
  T/C: 104 % of control
[2]
  T/C: 96 % of control
endpoint: mean survival time, dose: 200.0 mg/kg/injection, schedule: Q04DX003 (ip), vehicle: saline with Tween-80
  T/C: 103 % of control
[3]
  T/C: 102 % of control
endpoint: mean survival time, dose: 400.0 mg/kg/injection, schedule: Q04DX003 (ip), vehicle: saline with Tween-80
  T/C: 98 % of control

## Oc1ccccc1C=NC1CCCCC1N=Cc1ccccc1O.[Cu] (configuration not stated)
[4]
  T/C: 88 % of control
[5]
  T/C: 88 % of control
endpoint: mean survival time, dose: 400.0 mg/kg/injection, schedule: Q04DX002 (ip), vehicle: saline with Tween-80
  T/C: 91 % of control

## CC(C)C1NC(=O)C2CCCN2C1=O (configuration not stated)
endpoint: mean survival time, dose: 100.0 mg/kg/injection, schedule: Q01DX009 (ip), vehicle: saline sonified
  T/C: 98 % of control
endpoint: mean survival time, dose: 200.0 mg/kg/injection, schedule: Q01DX009 (ip), vehicle: saline sonified
  T/C: 93 % of control
endpoint: mean survival time, dose: 400.0 mg/kg/injection, schedule: Q01DX009 (ip), vehicle: saline sonified
  T/C: 96 % of control

## ClC(Cl)(Cl)c1ccc(C(SCc2ccccc2)SCc2ccccc2)cc1
endpoint: mean survival time, dose: 100.0 mg/kg/injection, schedule: Q01DX001 (ip), vehicle: saline with Tween-80
  T/C: 89 % of control
endpoint: mean survival time, dose: 200.0 mg/kg/injection, schedule: Q01DX001 (ip), vehicle: saline with Tween-80
  T/C: 89 % of control
endpoint: mean survival time, dose: 400.0 mg/kg/injection, schedule: Q01DX001 (ip), vehicle: saline with Tween-80
  T/C: 97 % of control

## Cc1ccc(CCC=O)o1
endpoint: mean survival time, dose: 50.0 mg/kg/injection, schedule: Q04DX002 (ip), vehicle: saline with Tween-80
  T/C: 100 % of control
[4]
  T/C: 100 % of control
[5]
  T/C: 100 % of control

## COC(=O)/C([O-])=C(\C(=O)OC)[n+]1cc(Br)cc2ccccc21
[4]
  T/C: 101 % of control
[5]
  T/C: 104 % of control

## O=C1c2ccccc2C(Cl)(c2ccc(Cl)cc2)c2ccc(Cl)cc21 (configuration not stated)
endpoint: median survival time, dose: 25.0 mg/kg/injection, schedule: Q01DX009 (ip), vehicle: saline with Tween-80
  T/C: 111 % of control
endpoint: median survival time, dose: 50.0 mg/kg/injection, schedule: Q01DX009 (ip), vehicle: saline with Tween-80
  T/C: 112 % of control
endpoint: median survival time, dose: 100.0 mg/kg/injection, schedule: Q01DX009 (ip), vehicle: saline with Tween-80
  T/C: 111 % of control

Source: PubChem BioAssay AID256 (DTP/NCI, 2004)
